# Biological target: IRAK4 (Homo sapiens (Human), UniProt Q9NWZ3)
# Experiment: IRAK-4 AlphaScreen biochemical kinase assay
# Conditions: 1 nM IRAK4, 1 mM ATP, 3.5 h at RT
# Protocol: The biochemical assay is in a AlphaScreen format. The kinase reaction is based on the IRAK-4 phosphorylation of a biotin labeled peptide. The phosphopeptide is incubated with anti-phosphothreonine antibody as well as streptavidin- and protein A-coated beads. Binding of the protein-A coated beads to the antibody and the streptavidin beads to the peptide, leads to an energy transfer from one bead to the other, ultimately producing a luminescent/fluorescent signal.
# Sequence of IRAK4 (Q9NWZ3 whole entry, species assumed): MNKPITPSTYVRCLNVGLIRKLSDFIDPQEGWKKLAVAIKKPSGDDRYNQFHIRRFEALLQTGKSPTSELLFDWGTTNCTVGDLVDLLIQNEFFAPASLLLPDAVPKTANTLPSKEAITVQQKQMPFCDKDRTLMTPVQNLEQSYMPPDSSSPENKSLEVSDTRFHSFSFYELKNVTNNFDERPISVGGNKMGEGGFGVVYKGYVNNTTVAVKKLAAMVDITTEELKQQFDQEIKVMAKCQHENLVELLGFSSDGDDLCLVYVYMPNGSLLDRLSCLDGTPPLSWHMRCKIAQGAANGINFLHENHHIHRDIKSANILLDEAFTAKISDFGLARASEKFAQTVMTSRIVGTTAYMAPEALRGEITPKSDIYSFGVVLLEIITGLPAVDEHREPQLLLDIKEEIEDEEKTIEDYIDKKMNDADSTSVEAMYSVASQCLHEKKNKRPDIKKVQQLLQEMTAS
row,IC50 [nM],SMILES
1,100 to 1000,"N#Cc1cccc(-n2ncc3ccc(-c4cccc(CN)n4)cc32)n1 [Example 46, 6-(6-(6-(aminomethyl)pyridin-2-yl)-1H-indazol-1-yl)picolinonitrile]"
2,< 100,"NCc1cccc(-c2ccc3cnn(-c4cccc(C(N)=O)n4)c3c2)n1 [Example 47, 6-(6-(6-(aminomethyl)pyridin-2-yl)-1H-indazol-1-yl)picolinamide]"
3,< 100,"COC(=O)c1cc(-c2cncc(N)c2)cc2c1cnn2-c1cccc(C#N)n1 [Example 49, methyl 6-(5-aminopyridin-3-yl)-1-(6-cyanopyridin-2-yl)-1H-indazole-4-carboxylate]"
4,< 100,"COC(=O)c1cc(-c2cncc(N)c2)cc2c1cnn2-c1cccc(C(F)(F)F)n1 [Example 50, methyl 6-(5-aminopyridin-3-yl)-1-(6-(trifluoromethyl)pyridin-2-yl)-1H-indazole-4-carboxylate]"
5,< 100,"Nc1cncc(-c2cc(C(=O)O)c3cnn(-c4cccc(C(F)(F)F)n4)c3c2)c1 [Example 51, 6-(5-aminopyridin-3-yl)-1-(6-(trifluoromethyl)pyridin-2-yl)-1H-indazole-4-carboxylic acid]"
6,100 to 1000,"NCc1cc(-c2cncc(N)c2)cc2c1cnn2-c1cccc(C(F)(F)F)n1 [Example 53, 5-(4-(aminomethyl)-1-(6-(trifluoromethyl)pyridin-2-yl)-1H-indazol-6-yl)pyridin-3-amine]"
7,< 100,"Nc1cncc(-c2cc(CO)c3cnn(-c4cccc(C(F)(F)F)n4)c3c2)c1 [Example 54, (6-(5-aminopyridin-3-yl)-1-(6-(trifluoromethyl)pyridin-2-yl)-1H-indazol-4-yl)methanol]"
8,< 100,"Cc1cccc(-n2ncc3ccc(-c4cccc(C(C)N)n4)cc32)n1 (stereo not shown) [Example 55, 1-(6-(1-(6-methylpyridin-2-yl)-1H-indazol-6-yl)pyridin-2-yl)ethanamine]"
9,< 100,"COC(=O)c1cc(-c2cccc(C(C)N)n2)cc2c1cnn2-c1cccc(C(F)(F)F)n1 (stereo not shown) [Example 56, methyl 6-(6-(1-aminoethyl)pyridin-2-yl)-1-(6-(trifluoromethyl)pyridin-2-yl)-1H-indazole-4-carboxylate]"
10,< 100,"CC(N)c1cccc(-c2cc(CO)c3cnn(-c4cccc(C(F)(F)F)n4)c3c2)n1 (stereo not shown) [Example 57, (6-(6-(1-aminoethyl)pyridin-2-yl)-1-(6-(trifluoromethyl)pyridin-2-yl)-1H-indazol-4-yl)methanol]"
11,100 to 1000,"CC(N)c1cccc(-c2cc(C(=O)N(C)C)c3cnn(-c4cccc(C(F)(F)F)n4)c3c2)n1 (stereo not shown) [Example 58, 6-(6-(1-aminoethyl)pyridin-2-yl)-N,N-dimethyl-1-(6-(trifluoromethyl)pyridin-2-yl)-1H-indazole-4-carboxamide]"
12,< 100,"CNC(=O)c1cc(-c2cccc(C(C)N)n2)cc2c1cnn2-c1cccc(C(F)(F)F)n1 (stereo not shown) [Example 59, 6-(6-(1-aminoethyl)pyridin-2-yl)-N-methyl-1-(6-(trifluoromethyl)pyridin-2-yl)-1H-indazole-4-carboxamide]"
13,< 100,"NC1CCCc2ccc(-c3ccc4cnn(-c5cccc(C(F)(F)F)n5)c4c3)nc21 (stereo not shown) [Example 63, 2-(1-(6-(trifluoromethyl)pyridin-2-yl)-1H-indazol-6-yl)-5,6,7,8-tetrahydroquinolin-8-amine]"
14,100 to 1000,"N#CCCCNC(=O)c1cccc(-n2ncc3ccc(-c4cncc(N)c4)cc32)n1 [Example 71, 6-(6-(5-aminopyridin-3-yl)-1H-indazol-1-yl)-N-(3-cyanopropyl)picolinamide]"
15,1000 to 10000,"N#Cc1cccc(-c2ncc3ccc(-c4cncc(N)c4)cn23)c1 [Example 75, 3-(6-(5-aminopyridin-3-yl)imidazo[1,5-a]pyridin-3-yl)benzonitrile]"
16,< 100,"N#Cc1cccc(-c2ncc3ccc(-c4cncc(N)c4)cn23)n1 [Example 76, 6-(6-(5-aminopyridin-3-yl)imidazo[1,5-a]pyridin-3-yl)picolinonitrile]"
17,< 100,"Nc1cncc(-c2ccc3cnc(-c4cccc(C(F)(F)F)n4)n3c2)c1 [Example 78, 5-(3-(6-(trifluoromethyl)pyridin-2-yl)imidazo[1,5-a]pyridin-6-yl)pyridin-3-amine]"
18,< 100,"CC(N)c1cccc(-c2ccc3cnc(-c4cccc(C(F)(F)F)n4)n3c2)n1 (stereo not shown) [Example 79, 1-(6-(3-(6-(trifluoromethyl)pyridin-2-yl)imidazo[1,5-a]pyridin-6-yl)pyridin-2-yl)ethanamine]"
19,< 100,"NCc1cc(N)cc(-c2ccc3cnn(-c4cccc(C(F)(F)F)n4)c3c2)n1 [Example 80, 2-(aminomethyl)-6-(1-(6-(trifluoromethyl)pyridin-2-yl)-1H-indazol-6-yl)pyridin-4-amine]"
20,< 100,"Nc1cc(C(=O)O)cc(-c2ccc3cnn(-c4cccc(C(F)(F)F)n4)c3c2)c1 [Example 85, 3-amino-5-(1-(6-(trifluoromethyl)pyridin-2-yl)-1H-indazol-6-yl)benzoic Acid]"
21,< 100,"NCCNC(=O)c1cc(N)cc(-c2ccc3cnn(-c4cccc(C(F)(F)F)n4)c3c2)c1 [Example 88, 3-amino-N-(2-aminoethyl)-5-(1-(6-(trifluoromethyl)pyridin-2-yl)-1H-indazol-6-yl)benzamide]"
22,< 100,"CC(N)c1cccc(-c2ccc3cnn(-c4cccc(C(F)(F)F)n4)c3c2)c1 (stereo not shown) [Example 89, 1-(3-(1-(6-(trifluoromethyl)pyridin-2-yl)-1H-indazol-6-yl)phenyl)ethanamine]"

row,SMILES,IC50 [nM]
1,"NCc1cccc(-c2ccc3cnn(-c4cccc(C(F)(F)F)n4)c3c2)n1 [Example 48, (6-(1-(6-(trifluoromethyl)pyridin-2-yl)-1H-indazol-6-yl)pyridin-2-yl)methanamine]",< 100
2,"NC(=O)c1cc(-c2cncc(N)c2)cc2c1cnn2-c1cccc(C(F)(F)F)n1 [Example 52, 6-(5-aminopyridin-3-yl)-1-(6-(trifluoromethyl)pyridin-2-yl)-1H-indazole-4-carboxamide]",< 100
3,"CN(C)C(=O)c1cc(-c2cncc(N)c2)cc2c1cnn2-c1cccc(C(F)(F)F)n1 [Example 60, 6-(5-aminopyridin-3-yl)-N,N-dimethyl-1-(6-(trifluoromethyl)pyridin-2-yl)-1H-indazole-4-carboxamide]",1000 to 10000
4,"CNC(=O)c1cc(-c2cncc(N)c2)cc2c1cnn2-c1cccc(C(F)(F)F)n1 [Example 61, 6-(5-aminopyridin-3-yl)-N-methyl-1-(6-(trifluoromethyl)pyridin-2-yl)-1H-indazole-4-carboxamide]",< 100
5,"NC1CCc2ccc(-c3ccc4cnn(-c5cccc(C(F)(F)F)n5)c4c3)nc21 (stereo not shown) [Example 62, 2-(1-(6-(trifluoromethyl)pyridin-2-yl)-1H-indazol-6-yl)-6,7-dihydro-5H-cyclopenta[b]pyridin-7-amine]",1000 to 10000
6,"Nc1cncc(-c2ccc3cnn(-c4cccc(C(=O)NCCO)n4)c3c2)c1 [Example 65, 6-(6-(5-aminopyridin-3-yl)-1H-indazol-1-yl)-N-(2-hydroxyethyl)picolinamide]",100 to 1000
7,"Nc1cncc(-c2ccc3cnn(-c4cccc(C(=O)NCCCO)n4)c3c2)c1 [Example 66, 6-(6-(5-aminopyridin-3-yl)-1H-indazol-1-yl)-N-(3-hydroxypropyl)picolinamide]",100 to 1000
8,"CC(O)CNC(=O)c1cccc(-n2ncc3ccc(-c4cncc(N)c4)cc32)n1 (stereo not shown) [Example 67, 6-(6-(5-aminopyridin-3-yl)-1H-indazol-1-yl)-N-(2-hydroxypropyl)picolinamide]",1000 to 10000
9,"Nc1cncc(-c2ccc3cnn(-c4cccc(C(=O)N5CC(O)C5)n4)c3c2)c1 [Example 68, (6-(6-(5-aminopyridin-3-yl)-1H-indazol-1-yl)pyridin-2-yl)(3-hydroxyazetidin-1-yl)methanone]",100 to 1000
10,"CN(C)CCNC(=O)c1cccc(-n2ncc3ccc(-c4cncc(N)c4)cc32)n1 [Example 69, 6-(6-(5-aminopyridin-3-yl)-1H-indazol-1-yl)-N-(2-(dimethylamino)ethyl)picolinamide]",1000 to 10000
11,"N#CCCNC(=O)c1cccc(-n2ncc3ccc(-c4cncc(N)c4)cc32)n1 [Example 70, 6-(6-(5-aminopyridin-3-yl)-1H-indazol-1-yl)-N-(2-cyanoethyl)picolinamide]",1000 to 10000
12,"NCCNC(=O)c1cccc(-n2ncc3ccc(-c4cncc(N)c4)cc32)n1 [Example 72, N-(2-aminoethyl)-6-(6-(5-aminopyridin-3-yl)-1H-indazol-1-yl)picolinamide]",< 100
13,"N#CCNC(=O)c1cccc(-n2ncc3ccc(-c4cncc(N)c4)cc32)n1 [Example 73, 6-(6-(5-aminopyridin-3-yl)-1H-indazol-1-yl)-N-(cyanomethyl)picolinamide]",1000 to 10000
14,"CS(=O)(=O)CCNC(=O)c1cccc(-n2ncc3ccc(-c4cncc(N)c4)cc32)n1 [Example 74, 6-(6-(5-aminopyridin-3-yl)-1H-indazol-1-yl)-N-(2-(methylsulfonyl)ethyl)picolinamide]",1000 to 10000
15,"NC(=O)c1cccc(-c2ncc3ccc(-c4cncc(N)c4)cn23)n1 [Example 77, 6-(6-(5-aminopyridin-3-yl)imidazo[1,5-a]pyridin-3-yl)picolinamide]",100 to 1000
16,"N#CCc1cccc(-n2ncc3ccc(-c4cncc(N)c4)cc32)n1 [Example 81, 2-(6-(6-(5-aminopyridin-3-yl)-1H-indazol-1-yl)pyridin-2-yl)acetonitrile]",100 to 1000
17,"Nc1cncc(-c2ccc3cnn(-c4cccc(CC(=O)O)n4)c3c2)c1 [Example 82, 2-(6-(6-(5-aminopyridin-3-yl)-1H-indazol-1-yl)pyridin-2-yl)acetic acid]",1000 to 10000
18,"N#CCNC(=O)c1cc(-c2ccc3cnn(-c4cccc(C(F)(F)F)n4)c3c2)cc(N)n1 [Example 87, 6-amino-N-(cyanomethyl)-4-(1-(6-(trifluoromethyl)pyridin-2-yl)-1H-indazol-6-yl)picolinamide]",100 to 1000

# From patent publication US10246456B2, “IRAK4 inhibiting agents” (BIOGEN MA INC., priority 2014, dated 2019)
